Assay results from patent US11584744B2 (UNIVERSITY OF WASHINGTON, priority 2017, dated 2023).
In brackets after ≈: the same amount, converted by molar mass. Read-outs that look alike come from different tables or passages of the source.

Legend:
[1] = biological target: recombinant S. aureus MetRS enzyme (Staphylococcus aureus, UniProt A0A0H2XID2); assay: Inhibition of SaMetRS, ATP depletion assay; type: biochemical
How it was run: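 N-terminal 6-His S. aureus MetRS (25 nM) was pre-incubated 15 min at room temperature with compound, 400 μg/mL E. coli tRNA and pyrophosphatase in HEPES-KOH pH 7.9, 2% DMSO. Reaction started with 150 nM ATP plus 20 μM L-methionine, ran 120 min; remaining ATP read by Kinase-Glo luminescence, IC50 by sigmoidal nonlinear regression.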

[2] = tested on: E. faecium VRE (ATCC 51559); assay: MIC susceptibility testing; type: cell-based, Enterococcus faecium; conditions: Enterococcus faecium
How it was run: (§1)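 CLSI broth microdilution in triplicate, 5×10^5 CFU/mL final, ≤0.5% DMSO; MHB for S. aureus, CA-MHB for E. coli and E. faecium, CA-MHB plus 3% laked horse blood for S. pyogenes (5% CO2).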

[3] = tested on: S. aureus MSSA (ATCC 29213); assay: MIC susceptibility testing; type: cell-based, Staphylococcus aureus; conditions: Staphylococcus aureus, 18 h; read-out: S. aureus MSSA (ATCC 29213) MIC
[4] = Cytotoxicity testing on mammalian cells (AlamarBlue, 48 hours); type: cell-based; conditions: human
Procedure: Cytotoxicity testing on mammalian cells: Compounds were assayed for cytotoxicity against CRL-8155 (human lymphoblasts) and HepG2 cells (human hepatocellular carcinoma). Cells were exposed to serial dilutions of compounds for 48 hours and toxicity was quantified using AlamarBlue (ThermoFisher Scientific, Waltham, Mass.). Assays were performed in quadruplicate and EC50 values were calculated with non-linear regression methods using software by the Collaborative Drug Database (Burlingame, Calif. www.collaborativedrug.com)

[5] = Liver microsome stability; type: in vitro ADME
Procedure: Microsome stability. Liver microsome stability assays were done by contract research laboratory, Wuxi AppTec Co. (Hubei, China). Briefly, compounds at 1 μM concentration were incubated in singlet with human or CD-1 mouse liver microsomes for 6 time points (0, 5, 10, 20, 30, and 60 min). Loss of parent compound was quantified by liquid chromatography/tandem mass spectrometry.

[6] = tested on: S. aureus MRSA (ATCC 43300); assay: MIC susceptibility testing; type: cell-based; conditions: Staphylococcus aureus; read-out: S. aureus MRSA (ATCC 43300) MIC
How it was run: as §1

E. faecalis (ATCC 29212) = assay: MIC susceptibility testing; type: cell-based; conditions: Enterococcus faecalis, ATCC29212; read-out: E. faecalis (ATCC 29212) MIC
E. faecium (ATCC 19434) = assay: MIC susceptibility testing; type: cell-based; conditions: Enterococcus faecium, ATCC19434; read-out: E. faecium (ATCC 19434) MIC
How it was run: as §1

[7] = tested on: S. aureus MRSA (ATCC 33591); assay: MIC susceptibility testing; type: cell-based, Staphylococcus aureus; conditions: Staphylococcus aureus, MRSA ATCC33591; read-out: (G) MRSA (ATCC33591) MIC
How it was run: as §1

MetRS (C. parvum) = MetRS (C. parvum) (Cryptosporidium parvum, UniProt Q5CVN0); assay: MetRS (C. parvum) enzyme inhibition; type: biochemical; conditions: read-out: (C) MetRS (C. parvum) IC50
[8] = Protein binding assays, equilibrium dialysis; type: in vitro ADME, mouse; conditions: 1 μM, equilibrium dialysis 22 hours
Procedure: Protein binding assays: Compound binding to mouse plasma proteins was determined using 96-well equilibrium dialyzer plates (SDIS 9610EN, Nest Group, Inc.). Mouse plasma ([…]-SW-F, BioreclamationIVT, Westbury, N.Y.) containing compound (final concentration 1 μM) was added to a donor chamber as a 150 μL volume. The buffer solution (0.2 mM phosphate buffer, 150 μL) was added to the reciprocal acceptor chamber. Each compound was tested in triplicate. To prepare calibration solution for compound quantifications, blank wells were prepared containing only mouse plasma in a donor well and buffer solution in its acceptor well. The equilibrium dialysis was carried out by rocking the plate for 22 hours in 37° C. Once equilibrium was reached, the plasma and buffer solution from both wells were carefully removed for further analysis with liquid chromatography-tandem mass spectrometry. Plasma solution and internal standard were mixed in the presence of 80% acetonitrile. After centrifuging the solution, the supernatant was transferred to an insert. Similarly, the buffer solution from the acceptor side was prepared containing 40% acetonitrile. Calibration standards for donor and acceptor sides were prepared with compound concentrations of 50 nM, 100 nM, 250 nM, 500 nM, and 1 μM. The compound concentrations from each well were calculated from the calibration curves using Microsoft Excel. The percentage of the test compound bound was determined as follows: % Free=(Concentration buffer chamber/Concentration plasma chamber)×100% % Bound=100%−% Free

S. aureus = assay: Serum shift assays (MIC with and without 50% human serum); type: cell-based, Staphylococcus aureus; conditions: Staphylococcus aureus
Procedure: Serum shift assays: To assess the role of protein binding on compound susceptibility, MIC determinations were performed in triplicate in the presence and absence of 50% human serum. Serial threefold dilutions of 2× compound were generated in MHB and aliquoted onto 96 well plates with a DMSO limit of 0.5%. Bacteria were adjusted to 1*10^8 CFUs/mL in MHB, then further diluted 1:100 in MHB and 100% heat deactivated filter sterilized pooled human serum. Fifty microliters were added to each well of the corresponding plates, and the plates were incubated at 37° C. for ˜20 h. The lowest concentration causing ≥90% growth inhibition was recorded as the MIC.

T. cruzi = T. cruzi growth inhibition; type: cell-based, Trypanosoma cruzi; conditions: read-out: (E) T. cruzi EC50
MetRS (T. brucei) = biological target: T1, MetRS (T. brucei) (Trypanosoma brucei brucei, UniProt Q38C91); assay: MetRS (T. brucei) enzyme inhibition; type: biochemical
T1 sequence (Q38C91 1-773): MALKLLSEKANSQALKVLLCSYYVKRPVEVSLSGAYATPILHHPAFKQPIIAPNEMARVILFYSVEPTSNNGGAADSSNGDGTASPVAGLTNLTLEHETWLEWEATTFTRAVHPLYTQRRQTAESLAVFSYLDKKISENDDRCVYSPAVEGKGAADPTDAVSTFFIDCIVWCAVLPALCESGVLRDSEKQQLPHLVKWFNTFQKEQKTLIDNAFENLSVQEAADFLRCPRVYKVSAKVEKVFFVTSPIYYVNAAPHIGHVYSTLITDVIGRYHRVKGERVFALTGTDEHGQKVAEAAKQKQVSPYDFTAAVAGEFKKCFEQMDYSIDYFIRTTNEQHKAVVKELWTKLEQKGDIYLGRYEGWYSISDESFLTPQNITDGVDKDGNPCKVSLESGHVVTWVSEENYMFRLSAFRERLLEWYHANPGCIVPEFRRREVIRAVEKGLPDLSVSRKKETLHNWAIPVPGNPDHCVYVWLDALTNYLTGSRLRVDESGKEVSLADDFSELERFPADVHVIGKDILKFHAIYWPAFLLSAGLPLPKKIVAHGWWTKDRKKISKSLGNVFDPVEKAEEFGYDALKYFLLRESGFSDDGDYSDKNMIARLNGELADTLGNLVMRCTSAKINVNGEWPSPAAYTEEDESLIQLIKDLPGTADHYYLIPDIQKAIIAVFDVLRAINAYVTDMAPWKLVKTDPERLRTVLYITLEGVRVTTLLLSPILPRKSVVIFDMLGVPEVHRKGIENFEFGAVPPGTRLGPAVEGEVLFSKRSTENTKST

Chain of recombinant S. aureus MetRS enzyme (A0A0H2XID2 2-657): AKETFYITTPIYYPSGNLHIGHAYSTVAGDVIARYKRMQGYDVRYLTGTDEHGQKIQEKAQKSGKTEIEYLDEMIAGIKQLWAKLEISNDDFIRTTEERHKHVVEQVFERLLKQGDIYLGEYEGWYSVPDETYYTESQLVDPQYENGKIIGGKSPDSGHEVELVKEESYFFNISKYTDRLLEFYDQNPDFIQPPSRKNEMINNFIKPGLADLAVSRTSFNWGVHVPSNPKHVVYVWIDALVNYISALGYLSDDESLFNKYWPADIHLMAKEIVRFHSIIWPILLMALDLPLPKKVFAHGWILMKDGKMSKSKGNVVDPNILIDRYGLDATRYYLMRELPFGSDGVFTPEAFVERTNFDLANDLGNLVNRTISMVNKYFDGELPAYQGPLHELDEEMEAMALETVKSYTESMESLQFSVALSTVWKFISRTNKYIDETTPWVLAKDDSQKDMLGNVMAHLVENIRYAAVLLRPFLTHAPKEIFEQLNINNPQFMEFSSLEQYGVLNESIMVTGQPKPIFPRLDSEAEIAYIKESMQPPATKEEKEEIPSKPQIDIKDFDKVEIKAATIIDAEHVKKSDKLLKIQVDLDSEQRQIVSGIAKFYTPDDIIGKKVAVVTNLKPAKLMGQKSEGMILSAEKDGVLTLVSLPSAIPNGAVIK
Chain of MetRS (C. parvum) (Q5CVN0 entry or part of it): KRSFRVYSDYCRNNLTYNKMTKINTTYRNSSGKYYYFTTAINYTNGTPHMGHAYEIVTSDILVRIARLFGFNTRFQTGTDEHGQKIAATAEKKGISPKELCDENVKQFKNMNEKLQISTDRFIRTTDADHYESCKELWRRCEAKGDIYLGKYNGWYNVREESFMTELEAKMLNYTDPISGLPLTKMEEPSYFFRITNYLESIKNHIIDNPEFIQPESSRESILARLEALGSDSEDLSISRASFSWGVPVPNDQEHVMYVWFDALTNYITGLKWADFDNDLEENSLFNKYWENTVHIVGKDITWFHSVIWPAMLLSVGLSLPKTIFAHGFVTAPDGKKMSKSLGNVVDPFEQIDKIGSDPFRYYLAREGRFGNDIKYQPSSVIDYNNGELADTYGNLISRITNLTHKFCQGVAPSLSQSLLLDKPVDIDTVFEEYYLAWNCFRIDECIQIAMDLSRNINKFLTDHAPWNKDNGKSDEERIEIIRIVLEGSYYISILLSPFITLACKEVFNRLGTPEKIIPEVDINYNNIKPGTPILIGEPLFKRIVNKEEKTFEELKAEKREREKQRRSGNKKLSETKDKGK

Structure (SMILES)	IC50 ([1]; recombinant enzyme, lower limit of detection 0.025 μM, read-out: MetRS S. aureus (enzyme) IC50) [nM]	MIC ([2]; read-out: E. faecium VRE (ATCC 51559) MIC) [µg/mL]	MIC [3] [µg/mL]	CC50 at 48 h ([4]; CRL-8155 cells (human lymphoblasts), read-out: Mamm. cells (CRL8155) CC50) [µg/mL]	CC50 at 48 h ([4]; HepG2 cells (human hepatocellular carcinoma), read-out: Mamm. cells (HepG2) CC50) [µg/mL]	half-life at 1 μM ([5]; human, human liver microsomes, read-out: Microsome stability: Human T½) [min]	half-life at 1 μM ([5]; mouse liver microsomes, CD-1 mouse, read-out: Microsome stability: Mouse T½) [min]	MIC [6] [µg/mL]	MIC (E. faecalis (ATCC 29212)) [µg/mL]	MIC (E. faecium (ATCC 19434)) [µg/mL]	IC50 ([1]; read-out: (B) MetRS (S. aureus) IC50) [nM]	MIC ([2]; E. faecium ATCC 51559, read-out: (I) E. faecium (ATCC 51559) MIC) [µg/mL]	MIC [7] [µg/mL]	IC50 (MetRS (C. parvum)) [nM]	% binding to mouse plasma [8] [%]	MIC (S. aureus; 50% human serum, read-out: Avg MIC ± SEM (+50% serum)) [µg/mL]	MIC (S. aureus; no serum, read-out: Avg MIC ± SEM (no serum)) [µg/mL]	EC50 (T. cruzi; Trypanosoma cruzi) [nM]	EC50 (T. cruzi) [nM]	IC50 (MetRS (T. brucei)) [nM]
O=c1[nH]c(Cc2ccc(Cl)cc2Cl)cn1Cc1nc2ccc(F)nc2[nH]1 [Compound 1962, 4-(2,4-dichlorobenzyl)-1-((5-fluoro-3H-imidazo[4,5-b]pyridin-2-yl)methyl)-1,3-dihydro-2H-imidazol-2-one, reference compound]	< 25	1.25 (≈ 3.19 µM)	2.5 (≈ 6.37 µM)	> 19.6	> 19.6	25.9	27	5 (≈ 12.7 µM)	5 (≈ 12.7 µM)	1.25 (≈ 3.19 µM)										
CCCn1c(Cc2ccc(Cl)cc2Cl)cn(Cc2nc3nc(F)ccc3[nH]2)c1=O [Compound 2069, 4-[(2,4-dichlorophenyl)methyl]-1-({5-fluoro-1H-imidazo[4,5-b]pyridin-2-yl}methyl)-3-propyl-2,3-dihydro-1H-imidazol-2-one]											< 25	> 2	0.445 (≈ 1.02 µM)	< 40	99.6	18.3 ± 2.2	0.036 ± 0.03	91.3	176	< 40
